Consider ten molecules from PubChem BioAssay (NCI).

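Dose response: 5 concentrations. Exposure: 48 h. Format: 96-well plates. Endpoint: linear interpolation; highest concentration if not reached. GI50 = concentration required for 50% inhibition of growth. TGI marks complete inhibition of growth.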

Test systems include HOP-62 NSCLC; SNB-19 CNS; MOLT-4 leukemia; CCRF-CEM leukemia; KM12 colon; K-562 leukemia; CAKI-1 renal; SK-MEL-28 melanoma; SK-MEL-5 melanoma; A549 NSCLC.
Common to all, as to assay: NCI tumour cell line growth inhibition, 48 h

Turning to `Cn1cc(/C=C2\C(=O)Nc3cccnc32)c2ccccc21`, the GI50 in the experiment on HOP-62 NSCLC is greater than 25 µM; in the experiment on SNB-19 CNS, greater than 25 µM; in the experiment on MOLT-4 leukemia, 11.5 µM; with CCRF-CEM leukemia it was 16 µM; in the experiment on KM12 colon, 0.885 µM; in the experiment with K-562 leukemia it was greater than 18.4 µM. In addition, the GI50 in the experiment on CAKI-1 renal is 10.2 µM; in the experiment with SK-MEL-28 melanoma it was greater than 25 µM; in the experiment on SK-MEL-5 melanoma it was 9.2 µM; in the experiment with A549 NSCLC it was 11.8 µM. The TGI with HOP-62 NSCLC, in the experiment on SNB-19 CNS, in the experiment on MOLT-4 leukemia, with CCRF-CEM leukemia, in the experiment on KM12 colon and in the experiment on K-562 leukemia was greater than 25 µM in each case. Further, the TGI in the experiment with CAKI-1 renal, in the experiment with SK-MEL-28 melanoma, in the experiment on SK-MEL-5 melanoma and in the experiment with A549 NSCLC was greater than 25 µM each time.
For `O=C(O)C1C2CC3CC2CC31` (stereo not given), the TGI in the experiment with HOP-62 NSCLC, in the experiment on SNB-19 CNS, in the experiment with MOLT-4 leukemia, with CCRF-CEM leukemia, in the experiment with KM12 colon and in the experiment with K-562 leukemia was greater than 100 µM in each case. For the same molecule, the TGI with CAKI-1 renal, with SK-MEL-28 melanoma, with SK-MEL-5 melanoma and with A549 NSCLC was greater than 100 µM each time.
With `Cc1nc(Nc2ccc([N+](=O)[O-])cc2)sc1C(=O)/C=C/c1ccc(N(C)C)cc1`, the TGI in the experiment with HOP-62 NSCLC, in the experiment with SNB-19 CNS, in the experiment with MOLT-4 leukemia, in the experiment with CCRF-CEM leukemia, in the experiment with KM12 colon and in the experiment with K-562 leukemia was greater than 100 µM each time. In addition, the TGI in the experiment on CAKI-1 renal, in the experiment on SK-MEL-28 melanoma, in the experiment with SK-MEL-5 melanoma and with A549 NSCLC was greater than 100 µM each time.
On to `C/C(=N\n1c(N)c(C#N)c(-c2ccc(Cl)cc2)c(C#N)c1=O)c1cccnc1`, for which the GI50 in the experiment with HOP-62 NSCLC, with SNB-19 CNS, with MOLT-4 leukemia, in the experiment with CCRF-CEM leukemia, in the experiment on KM12 colon and with K-562 leukemia was greater than 100 µM each time. The GI50 in the experiment on CAKI-1 renal, in the experiment with SK-MEL-28 melanoma, in the experiment on SK-MEL-5 melanoma and in the experiment on A549 NSCLC was greater than 100 µM each time. The TGI in the experiment with HOP-62 NSCLC, in the experiment on SNB-19 CNS, in the experiment with MOLT-4 leukemia, with CCRF-CEM leukemia, with KM12 colon and in the experiment on K-562 leukemia was greater than 100 µM throughout. Further, the TGI in the experiment on CAKI-1 renal, with SK-MEL-28 melanoma, in the experiment with SK-MEL-5 melanoma and in the experiment with A549 NSCLC was greater than 100 µM throughout.
As for `CN(C)/C(=N/C(=O)Nc1ccccc1)SCc1ccccc1`, the TGI in the experiment with HOP-62 NSCLC, in the experiment on SNB-19 CNS, in the experiment on MOLT-4 leukemia, in the experiment with CCRF-CEM leukemia, with KM12 colon and in the experiment with K-562 leukemia was greater than 100 µM in each case. Besides, the TGI with CAKI-1 renal, with SK-MEL-28 melanoma, in the experiment with SK-MEL-5 melanoma and in the experiment with A549 NSCLC was greater than 100 µM each time.
Turning to `CCN(CC)c1ccc(/C=N\NC(=O)c2cccc(Nc3ccnc(C(F)(F)F)c3)c2)c(O)c1`, the GI50 in the experiment on HOP-62 NSCLC is 0.184 µM; in the experiment on SNB-19 CNS it was 0.418 µM; with MOLT-4 leukemia, 0.126 µM; with CCRF-CEM leukemia, 0.084 µM; in the experiment with KM12 colon, 0.342 µM; with K-562 leukemia it was 0.374 µM. Further, the GI50 in the experiment on CAKI-1 renal is 0.182 µM; in the experiment on SK-MEL-28 melanoma, 0.191 µM; with SK-MEL-5 melanoma it was 0.242 µM; in the experiment with A549 NSCLC, 0.587 µM. Further, the TGI in the experiment on HOP-62 NSCLC is 1.96 µM; in the experiment on SNB-19 CNS, greater than 100 µM; in the experiment on MOLT-4 leukemia it was 1.49 µM; in the experiment on CCRF-CEM leukemia it was 1.27 µM; in the experiment on KM12 colon, greater than 100 µM; in the experiment on K-562 leukemia, greater than 100 µM. Besides, the TGI in the experiment on CAKI-1 renal was 0.496 µM; in the experiment on SK-MEL-28 melanoma it was greater than 20.8 µM; in the experiment with SK-MEL-5 melanoma, 0.883 µM; in the experiment on A549 NSCLC, greater than 100 µM.
As for `C[Si](C)(C)[C@@]1([Se]c2ccccc2)CC[C@@H]1C(=O)c1ccccc1`, the TGI was greater than 100 µM in the experiment with HOP-62 NSCLC; greater than 100 µM in the experiment with SNB-19 CNS; 75.1 µM with MOLT-4 leukemia; greater than 100 µM with CCRF-CEM leukemia; greater than 100 µM in the experiment on KM12 colon; greater than 100 µM in the experiment on K-562 leukemia. Further, the TGI was greater than 100 µM in the experiment on CAKI-1 renal, greater than 100 µM with SK-MEL-28 melanoma, 37.4 µM with SK-MEL-5 melanoma and greater than 100 µM in the experiment on A549 NSCLC.
With `NC(=O)c1ccc(-c2c3ccccc3cc3c2ccc2ccccc23)cc1`, the GI50 with HOP-62 NSCLC is 4.28 µM; in the experiment on SNB-19 CNS, 5.51 µM; in the experiment on MOLT-4 leukemia it was 5.5 µM; in the experiment with CCRF-CEM leukemia, 5.83 µM; in the experiment with KM12 colon, 1.32 µM; with K-562 leukemia, 1.5 µM. Further, the GI50 in the experiment on CAKI-1 renal is 4.54 µM; in the experiment on SK-MEL-28 melanoma, 4.39 µM; in the experiment with SK-MEL-5 melanoma, 3.1 µM; in the experiment on A549 NSCLC it was 4.7 µM. Further, the TGI is 23.2 µM with HOP-62 NSCLC; 46.9 µM in the experiment with SNB-19 CNS; greater than 100 µM in the experiment on MOLT-4 leukemia; greater than 100 µM in the experiment on CCRF-CEM leukemia; 15.2 µM in the experiment on KM12 colon; greater than 100 µM with K-562 leukemia. The TGI turned out to be 52.8 µM in the experiment with CAKI-1 renal, 36 µM in the experiment with SK-MEL-28 melanoma, 14 µM in the experiment with SK-MEL-5 melanoma and 24.7 µM in the experiment with A549 NSCLC.
As for `CC(C)(C)c1ccc(C(O)(c2ccc(C(C)(C)C)cc2)c2ccc(C(C)(C)C)cc2)cc1`, the TGI in the experiment on HOP-62 NSCLC, in the experiment with SNB-19 CNS, in the experiment on MOLT-4 leukemia, with CCRF-CEM leukemia, in the experiment with KM12 colon and with K-562 leukemia was greater than 100 µM throughout. In addition, the TGI in the experiment on CAKI-1 renal, in the experiment on SK-MEL-28 melanoma, with SK-MEL-5 melanoma and in the experiment with A549 NSCLC was greater than 100 µM each time.
Consider `OCC1CC2CC1C1(C2)OCCO1` (stereo not given), for which the TGI in the experiment on HOP-62 NSCLC, with SNB-19 CNS, with MOLT-4 leukemia, in the experiment on CCRF-CEM leukemia, with KM12 colon and in the experiment with K-562 leukemia was greater than 100 µM in each case. Further, the TGI in the experiment on CAKI-1 renal, in the experiment with SK-MEL-28 melanoma, in the experiment on SK-MEL-5 melanoma and in the experiment on A549 NSCLC was greater than 100 µM each time.
